Experimental findings from publication PMC9143043, “Synthesis and Biological Evaluation of 5′-O-Fatty Acyl Ester Derivatives of 3′-Fluoro-2′,3′-dideoxythymidine as Potential Anti-HIV Microbicides” (Molecules, 2022) are described below.

Data set [1] can be described thus: Cytotoxicity assay (MTS). The note with it: human, HeLa cells (ATCC CCL-2.1), Table 2; MTS; 50% effective concentration. The class given is cell-based.
For data set [2], the system named is cell-associated HIV-1 IIIB (infected SulT1 cells). As to the kind of experiment: Cell-associated transmission assay (IIIB). The settings on record: Human immunodeficiency virus 1, IIIB, read-out: (CA) EC50, Table 2; cell-associated transmission assay (IIIB). The class given is cell-based. The protocol:
(§1) Anti-HIV activities of the compounds were evaluated according to the previously reported procedure. In summary, the HeLa (Human cervical carcinoma: ATCC CCL-2.1) cell line was used to measure the inactivation of both the cell-free virus preparations and virus-infected cell preparations. The cells were plated in culture plates 24 h prior to each experiment. Cell-free viral preparations of HIV-1 strains IIIB (lymphocytotropic strain) and BaL (monocytotropic strain) were used for the cell-free assay. For the cell-associated assay, the SulT1 cells were infected with IIIB virus 5 days prior to the experiment. Cell-free virus and virus-infected cells were mixed with different compounds and diluted to make different concentrations. The mixture was further diluted with the buffer and added to the HeLa cells.

Data set [3] relates to HIV-1 98USMSC5016 (C-Wild Type). As to the kind of experiment: PBMC multi-round infection assay, clinical isolate 98USMSC5016. In kind it is cell-based. The note with it: Human immunodeficiency virus 1. The protocol: (§2) Based on a preliminary screening, conjugates 5 and 8 were evaluated for their ability to inhibit a drug-resistant virus in a peripheral blood mononuclear cell (PBMC) assay. In this assay, FLT, 5, and 8 were tested against B- and C-wild type and A-17 and 4755–5 multidrug-resistant (MDR) clinical isolates of HIV-1, where compounds were incubated with PBMCs for 6 h and then washed off before the addition of the virus and further culture for 7 days.
(§3) For the assessment of compounds against the wild type (WT; R5; clones = 94US3393IN [B subtype] and 98USMSC5016 [C subtype]) and drug-resistant (clones = 4755−5 and A17) HIV-1 clinical isolates, PHA-P stimulated cells from at least two normal donors were pooled, diluted in fresh media, and plated in the interior wells of a 96-well round-bottom microplate. Pooling PBMCs from more than one donor was used to minimize the variability observed between the individual donors, which results from the quantitative and qualitative differences in HIV infection and overall response to the PHA and IL-2 of primary lymphocyte populations. Each plate contained virus/cell control wells (cells + virus), experimental wells (drug + cells + virus), and compound control wells (drug + media, no cells, necessary for MTS monitoring of cytotoxicity). Test drug dilutions were prepared in microtiter tubes, and each concentration was placed in appropriate wells. Following the addition of the drug dilutions to the PBMCs, a predetermined dilution of virus stock was then placed in each test well (final MOI ≅ 0.1). Because HIV-1 is not cytopathic to PBMCs, the same assay plate can be used for both the antiviral efficacy and cytotoxicity measurements. Compounds were incubated with virus and cells in a 96-well format for 6 h. The cells were then washed by removing 75% of the medium (150 μL) and replacing it with 150 μL of fresh (no drug) medium. The plates were then centrifuged (∼200 g) for 10 min, after which 150 μL of the medium was removed, and an additional 150 μL of fresh medium was added to each well and further incubated for 6 days or until peak reverse transcriptase (RT) activity was detected. A microtiter plate-based RT reaction was utilized. Incorporated radioactivity (counts per minute, CPM) was quantified using standard liquid scintillation techniques. Compound IC50 (50%, inhibition of virus replication) was calculated using statistical software and regression analysis. A cellular uptake study was conducted for fluorescence conjugates 23 and 24 using a previously published procedure with minor modifications. All of the experiments were conducted in triplicate.

The test system of data set [4] is human vaginal cells (VK-2/E6E7). Description: Vaginal cell cytotoxicity (MTS assay). The class given is cell-based. The note with it: 6 h incubation; 31-1000 µg/mL. The protocol: A commercially used spermicidal agent (N-9) and conjugate cytotoxicity was evaluated using immortalized human vaginal cells (VK-2/E6E7). […] Observed cytotoxicity from N-9 could be correlated with the generation of higher levels of cytokines by N-9.
Human T lymphoblastoid cells (CCRF-CEM, ATCC No. CCL-119) were grown to 70% confluency in a culture medium. CCRF-CEM cells were incubated with 10 µM of the compounds and mixed with trypan blue (0.1%) to color the dead cells. The percentage of viability was calculated by using a Cellometer Auto T.4 (Nexcelom Bioscience). The cell viability against the vaginal cells (VK-2/E6E7) was conducted according to the previously reported procedure. The effect of conjugates on the sperm viability and mobility was evaluated as described previously.
Figure 2 (A) Dose–response curves of the vaginal cytotoxicity in VK-2 cells (MTS assay) for 5, 6, 8, and N-9 after 6 h incubations. (B) Proinflammatory cytokine (IL-1α) production in the VK-2 cells (ELISA) after a 6 h incubation in the presence of 5, 6, 8, and N-9.

Data set [5] can be described thus: Log D by liquid-liquid distribution chromatography. The class given is physicochemical. The note with it: octanol-coated column with octanol-saturated mobile phases, pH 7.4. The protocol:
Physicochemical properties including pKa, Log D, and solubility were determined for 5 (as a model compound). […] It was not possible to measure the partition coefficient (Log P) of the fatty acyl derivatives of FLT and AZT in a standard n-octanol/water mixture because of the insolubility of the compounds in water. The cLog P value was calculated as 5.23 using ChemDraw. […] Since most of 5 is in its neutral form, the Log D value will correspond to the Log P value.
The Log P of 5 was initially investigated by the pH-metric (potentiometric) method. The sample was titrated in three triple titrations from pH 2.5 to pH 11.9 at concentrations of 0.7–1.1 mM in various ratios of octanol/water. The results indicated high sample lipophilicity, although the Log P could not be determined due to the apparent pKa in octanol shifting out of the measurable range. Therefore, the Log D of 5 at pH 7.4 was measured as 5.04 using liquid–liquid distribution chromatography. The Profiler LDA is an isocratic chromatography system that uses an octanol-coated column with octanol saturated mobile phases adjusted to pH 7.4. […]

For data set [6], the system named is HIV-1 A-17 MDR (B-NNRTI). Description: PBMC multi-round infection assay, resistant isolate A-17. The class given is cell-based. How it is done: as §2, §3
The test system of data set [7] is HIV-1 strain IIIB (lymphocytotropic strain). Description: Single-round infection assay, cell-free X4 virus (lymphocytotropic strain). In kind it is cell-based. The settings on record: read-out: (X4) EC50, Table 2, single-round infection assay. The protocol: as §1
Where [8] appears, read: Human immunodeficiency virus 1, PBMC.

Read-outs that look alike come from different tables or passages of the source.

In the case of `Cc1cn([C@H]2C[C@H](F)[C@@H](COC(=O)CCCCCCCCCCCN=[N+]=[N-])O2)c(=O)[nH]c1=O` [Compound 5, 3′-fluoro-2′,3′-dideoxy-5′-O-(12-azidododecanoyl)thymidine], the EC50 in data set [1] was 1600 µM; in data set [2], 12.6 µM; in data set [7] (Human immunodeficiency virus 1, IIIB), at most 1 µM; in data set [7], 0.9 µM. The IC50 came out at 0.0021 µM in data set [3] and 0.0044 µM in data set [6] (setting [8]). Moreover, the IC90 was 0.0086 µM in data set [3] and 0.0141 µM in data set [6] (setting [8]). Moreover, the “cytotoxicity to vaginal cells” value in data set [4] is recorded as “did not show significant cytotoxic effects”. In data set [5], the chromatographic logD amounted to 5.04. Also, the “fold more potent than FLT against A-17” value in data set [6] (versus FLT IC50) is reported as “at least 6 fold”.
